Source: patent US20170032106A1, “System and Method for Analyzing Adverse Event Data” (Astellas Pharma Europe Ltd., priority 2015, published 2017)
Like-named read-outs stand apart in the source and are kept apart here.

What was measured:
[1] = set-up: species or system patients; details: human, in vivo; for burden estimate from dry mouth / overall burden estimate: 85 days
Text: The systems and methods of the present invention are now described with reference to specific examples of clinical trials and the adverse event data generated in connection therewith, and stored in a database. […] 2015]. DOI: 10.1177/1756287215589250) with a β3 adrenergic receptor agonist and an anti-muscarinic agent. General names for each drug treatment are used herein.
First described is the data analysis involved with implementation of the invention. More particularly, the application of the methodology involves the use of a clinical study database with individual data entries for TEAEs per patient per day. The presence of TEAEs may be plotted against the study day, such that if a patient reported a TEAE from Days 3 to 5, this TEAE was considered present on Days 3, 4 and 5. Also, if an end date was not present in the database, or a TEAE was ongoing, the last study day of the patient was taken as the end day of the TEAE. […] The addition of coloring that corresponds with TEAE severity allows easy discrimination of TEAEs of differing severity in the graph.
In order to visually represent the safety/TEAE burden experienced by a patient, varied weighting may be applied to TEAE severity in each arm in a consistent manner. The graph may, therefore, display the number of weighted TEAEs per day. For purposes of example, in the graphs described herein, TEAEs that were mild, moderate, severe, life threatening/disabling and related to death were weighted to represent 1×, 2×, 3×, 4× and 5×TEAEs per event per day, respectively. Further, the investigator may indicate the seriousness of the TEAE.
An area under the curve (AUC) analysis can be performed in conjunction with the burden of therapy methodology to quantitatively compare potential differences in mean events per day between study arms. This can be performed in conjunction with weighting of events if required. An AUC analysis may be useful in studies that have a similar presence of events in each arm, as an estimate of the mean weighted events per day for each arm can be compared using statistical tools.
The AUC for each individual subject can also be calculated. The AUC represents the total burden that an individual subject experienced during the trial. The AUC is the sum of the burden, for all burdens of an individual subject. Thus, the AUC of subject i is burdeni=Σj=1^t^i burdenij, where ti is the total number of study days of subject i.
The AUC can be used in an analysis of covariance (ANCOVA) as a response variable and the impact of different covariates and factors on the AUC can be investigated. The obvious factor is treatment, but one can include medication history, age, gender or BMI as […] in the ANCOVA analysis.
To analyze the profiles with an ANCOVA, the AUC for dry mouth of each subject was derived. The AUC was then used as the dependent variable in the model. […] It is likely that a negative past experience with anti-muscarinics could influence the recording of a specific adverse event like dry-mouth. In the statistical (ANCOVA) model, prior anti-muscarinics dissatisfaction was added next to treatment as explanatory variable. […] Prior anti-muscarinic dissatisfaction had also a low p-value (p=0.007), meaning that subjects with a negative experience using anti muscarinics also reported more dry mouths. In this study, dry mouth was reported by 29 patients (3.1%) in the adrenergic agonist group and 54 patients (5.8%) in the antimuscarinic group (Batista et al., 2015). An analysis of patients who reported dry mouth was performed to investigate whether there was a difference between arms and approximately 1.5-2.0% of patients reported dry mouth in the antimuscarinic group from Days 17-85 (FIGS. 3B and 4B).

[2] = cited from earlier work
[3] = overactive bladder study, whole study

Compound | burden estimate from dry mouth [1] | overall burden estimate [1] | number of patients reporting dry mouth ([2]; human, in vivo) [patients] | patients reporting dry mouth (%) ([2]; human, in vivo) | patients with TEAEs (%) [2, 3] [%] | total number of patients with TEAEs [2, 3] | patients reporting dry mouth per day [1] | difference in the proportion of patients with TEAEs ([1]; 10 day) [%] | difference in the proportion of patients with TEAEs ([1]; 85 day) [%]
Nc1nc(CC(=O)Nc2ccc(CCNC[C@H](O)c3ccccc3)cc2)cs1 [β3 adrenergic receptor agonist, mirabegron] | 2.9 | 15.1 | 29 | 3.1 | 29.3 | 274 | – | – | –
O=C(O[C@H]1CN2CCC1CC2)N1CCc2ccccc2[C@@H]1c1ccccc1 [antimuscarinic agent, solifenacin] | 5.7 | 19.6 | – | – | – | – | 1.5-2.0% | 0.1 | 5
